Data published in US5808060A, “Fused isoindolones” (Cephalon, Inc., priority 1996, dated 1998).

Key:
protein kinase C = experiment: PKC Activity Inhibition Assay; type: biochemical
Experimental: Fused isoindolones inhibited the activity of protein kinase C (Table VI). The protein kinase C assay has been disclosed (Murakata et al., U.S. Pat. No. 4,923,986; Kikkawa et al., J. Biol. Chem. 257: 13341-13348 (1982)). The assay was performed with several concentrations of fused isoindolones. The concentration at which protein kinase C was 50% inhibited (IC50) was determined.

[1] = test system: dissociated rat embryonic spinal cord culture (ChAT activity); experiment: Spinal Cord ChAT Activity Assay; type: cell-based; conditions: after 2-3 hour plating period; single application; ChAT measured 48 hours later; control cultures not treated
Source text: As noted, ChAT is a specific biochemical marker for functional cholinergic neurons. Cholinergic neurons represent the major cholinergic input into the hippocampal formation, olfactory nucleus, interpeduncular nucleus, cortex, amygdala, and parts of the thalamus. In the spinal cord, the motor neurons are cholinergic neurons which contain ChAT (Phelps et al., J. Comp. Neurol. 273: 459-472 (1988)). ChAT activity has been used to study the effects of neurotrophins (e.g., NGF or NT-3) on the survival and/or function of cholinergic neurons. The ChAT assay also serves as an indication of the regulation of ChAT levels within cholinergic neurons.
Fused isoindolone derivatives increased ChAT activity in the dissociated rat embryonic spinal cord culture assay (FIG. 1). […]
Methods: Fetal rat spinal cord cells were dissociated, and experiments were performed as described (Smith et al., J. Cell Biology 101: 1608-1621 (1985); Glicksman et al., J. Neurochem. 61: 210-221 (1993)). […] ChAT activity was measured after 2 days in vitro using a modification of the Fonnum procedure (Fonnum, J. Neurochem. 24: 407-409 (1975)) according to McManaman et al. and Glicksman et al. (McManaman et al., Developmental Biology 125: 311-320 (1988); Glicksman et al., J. Neurochem. 61: 210-221 (1993)).

trkA tyrosine kinase = trkA tyrosine kinase (Homo sapiens, UniProt P04629); experiment: trkA Tyrosine Kinase Activity Inhibition Assay (ELISA); type: biochemical; conditions: PLCγ/pGEX substrate, 16 μM ATP, 37° C., 15 min, read-out: trk A INHIBITION IC50
Chain of trkA tyrosine kinase (P04629 33-796): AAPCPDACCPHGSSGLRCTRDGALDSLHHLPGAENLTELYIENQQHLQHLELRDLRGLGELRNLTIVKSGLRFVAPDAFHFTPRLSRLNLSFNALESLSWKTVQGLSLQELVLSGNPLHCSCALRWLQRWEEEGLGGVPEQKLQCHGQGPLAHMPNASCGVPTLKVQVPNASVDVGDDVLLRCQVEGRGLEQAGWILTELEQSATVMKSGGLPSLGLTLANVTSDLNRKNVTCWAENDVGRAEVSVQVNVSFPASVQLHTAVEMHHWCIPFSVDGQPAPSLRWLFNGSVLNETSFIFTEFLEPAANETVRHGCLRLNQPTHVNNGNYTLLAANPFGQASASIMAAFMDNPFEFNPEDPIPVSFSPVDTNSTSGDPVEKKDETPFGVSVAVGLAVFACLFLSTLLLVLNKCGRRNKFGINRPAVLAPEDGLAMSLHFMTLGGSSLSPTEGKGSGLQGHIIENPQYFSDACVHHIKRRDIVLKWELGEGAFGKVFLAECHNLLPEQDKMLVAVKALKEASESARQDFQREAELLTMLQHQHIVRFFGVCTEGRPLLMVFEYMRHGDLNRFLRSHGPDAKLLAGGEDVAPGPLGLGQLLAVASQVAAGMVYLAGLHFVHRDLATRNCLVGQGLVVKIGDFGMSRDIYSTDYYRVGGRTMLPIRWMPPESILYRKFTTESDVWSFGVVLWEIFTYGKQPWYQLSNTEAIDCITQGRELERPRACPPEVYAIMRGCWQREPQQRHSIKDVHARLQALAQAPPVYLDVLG
Experimental: Fused isoindolones inhibited trkA tyrosine kinase activity as determined by ELISA. trkA is a high affinity receptor for neurotrophins. Fused isoindolones were added to 96-well microtiter plates that were previously coated with a phosphorylation substrate (phospholipase C-γ (PLCγ)/pGEX fusion protein) (see Rotin, et al., 11 EMBO J. 559, 1992). These compounds were then tested for the ability to inhibit substrate phosphorylation by the trkA tyrosine kinase.
Methods: 96-well ELISA plates (Nunc) were coated with 100 μl/well of the phosphorylation substrate (40 μg/ml) PLCγ/pGEX fusion protein) in 20 mM Tris, pH 7.6, 137 mM NaCl, and 0.02% NaN3 overnight at 4° C. […] Plates were washed three times with TBST, followed by two washes with TBS (TBST sans Tween-20). Fused pyrrolocarbozoles were then added at various concentrations to a reaction mixture (50 mM HEPES, pH 7.4, 5 mM MnCl2, 5 mM MgCl2, 140 mM NaCl, 16 μM ATP, and 15 ng trkA in a total volume of 100 μL.). As a negative control, 100 mM EDTA was included in the reaction solution. The plates were then incubated at 37° C. for 15 min. The detection antibody, monoclonal anti-phosphotyrosine antibody (UBI), was added at a dilution of 1:2000 in TBST, and incubated for 1 hour at 37° C. […] The colored product was read at 490 nm in a microplate reader (Biotek).

[2] = test system: basal forebrain cultures (ChAT activity); experiment: Basal Forebrain ChAT Activity Assay; type: cell-based, rat; conditions: preliminary assays; ChAT assessed 5 days after plating
Experimental: Fused isoindolone derivatives were tested for the ability to increase ChAT activity of basal forebrain cultures.
Methods: The basal forebrain was dissected from rat embryos (day 17 or 18 embryos) and the cells were dissociated with a neutral protease (Dispase™, Collaborative Research). Neurons were plated at a density of 5×10^4 cells/well (1.5×10^5 cells/cm^2) in poly-l-ornithine and laminin coated plates. Cells were cultured in serum-free N2 medium containing 0.05% BSA at 37° C. in a humidified atmosphere, 5% CO2 /95% air. ChAT activity was assessed 5 days after plating by using the ChAT assay as described in Example III(A)(1).

| IC50 (protein kinase C) [nM] | IC50 (trkA tyrosine kinase) [nM] | Compound | increased ChAT activity over control cultures (spinal cord) [1] [% over control] | effect on basal forebrain ChAT activity [2] |
| --- | --- | --- | --- | --- |
| 650 | – | O=C1NC(=O)c2c1c1c(c3c2-c2ccccc2C3)Cc2ccccc2-1 [Compound I-1, 1H-Indenyl[2,3-c]-1H-indenyl[2,3-e]isoindol-1,3-dione] | – | – |
| 2000 | 190 | O=C1NCc2c1c1c(c3c2-c2ccccc2C3)Cc2ccccc2-1 [Compound I-2, 1H-Indenyl[2,3-c]-1H-indenyl[2,3-e]-3H-isoindol-1-one] | 150 | – |
| – | – | O=C1NC(=O)c2c1c1c3ccccc3sc1c1sc3ccccc3c21 [Compound I-3, Benzothieno[2,3-c]benzothieno[2,3-e]isoindol-1,3-dione] | – | did not increase ChAT activity |
| – | – | O=C1NCc2c1c1c3ccccc3sc1c1sc3ccccc3c21 [Compound I-4, Benzothieno[2,3-c]benzothieno[2,3-e]isoindol-1-one] | – | did not increase ChAT activity |
